pIC50: −log10 of the molar value. Calls of active or inactive are those of the source. The rule behind the calls is not given here. Peptide text beside a SMILES is read from it.
Key:
[1] = molecular target: T1, E3 ubiquitin-protein ligase XIAP (Homo sapiens, UniProt P98170); assay: Displacement of fluorescent H-Abu-Arg-Pro-Phe-Lys-NH-FAM-NH2 peptide from XIAP BIR3 domain by fluorescence polarization assay
[2] = molecular target: T1, E3 ubiquitin-protein ligase XIAP; assay: Inhibition of XIAP in HEK293 cell lysate assessed as release of caspase-3 from BIR3 measuring formation of fluorescent AFC from DEVD-AFC by fluorimetry; format: cell-free
[3] = molecular target: T1, E3 ubiquitin-protein ligase XIAP; assay: Inhibition of XIAP in HEK293 cell lysate assessed as release of caspase-9 from BIR3 measuring formation of fluorescent AFC from LEHD-AFC by fluorimetry; format: cell-free

T1 sequence (P98170 whole entry, the tested form may be a part): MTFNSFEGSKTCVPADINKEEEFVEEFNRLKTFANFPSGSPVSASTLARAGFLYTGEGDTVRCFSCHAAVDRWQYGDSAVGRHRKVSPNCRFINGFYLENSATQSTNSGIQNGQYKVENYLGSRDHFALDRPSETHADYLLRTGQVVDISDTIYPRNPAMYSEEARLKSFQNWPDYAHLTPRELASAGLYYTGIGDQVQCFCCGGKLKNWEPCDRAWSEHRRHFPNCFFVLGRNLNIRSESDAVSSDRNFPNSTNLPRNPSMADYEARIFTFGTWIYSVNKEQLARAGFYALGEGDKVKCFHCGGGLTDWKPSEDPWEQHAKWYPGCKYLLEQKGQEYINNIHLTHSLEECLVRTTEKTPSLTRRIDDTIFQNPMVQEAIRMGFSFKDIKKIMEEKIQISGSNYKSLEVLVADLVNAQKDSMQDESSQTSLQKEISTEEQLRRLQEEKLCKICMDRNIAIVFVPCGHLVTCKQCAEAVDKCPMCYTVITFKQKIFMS

Activity [1]	inhibition [2]	pIC50 [1]	inhibition [3]	Structure (SMILES)
inactive	–	–	–	CC[C@H](C)[C@H](NC(=O)[C@@H]1CCCN1C(=O)[C@@H](N)CS)C(=O)NCCOCCOCC(=O)NCCN(CC(=O)NCCN(CC(=O)NCCN(CC(=O)NCCN(CC(=O)NCCN(CC(=O)NCCN(CC(=O)NCCN(CC(=O)NCC(N)=O)C(=O)Cn1cnc2c(=O)[nH]c(N)nc21)C(=O)Cn1cnc2c(N)ncnc21)C(=O)Cn1ccc(N)nc1=O)C(=O)Cn1cnc2c(N)ncnc21)C(=O)Cn1cc(C)c(=O)[nH]c1=O)C(=O)Cn1ccc(N)nc1=O)C(=O)Cn1ccc(N)nc1=O
–	Dose-dependent effect	6.25	Dose-dependent effect	CC[C@H](C)[C@H](NC(=O)[C@@H]1CCCN1C(=O)[C@H](CS)NC(=O)[C@H](C)N)C(=O)NCCOCCOCC(=O)NCCN(CC(=O)NCCN(CC(=O)NCCN(CC(=O)NCCN(CC(=O)NCCN(CC(=O)NCCN(CC(=O)NCCN(CC(=O)NCC(N)=O)C(=O)Cn1cnc2c(=O)[nH]c(N)nc21)C(=O)Cn1cnc2c(N)ncnc21)C(=O)Cn1ccc(N)nc1=O)C(=O)Cn1cnc2c(N)ncnc21)C(=O)Cn1cc(C)c(=O)[nH]c1=O)C(=O)Cn1ccc(N)nc1=O)C(=O)Cn1ccc(N)nc1=O
–	–	6.19	–	CC[C@H](C)[C@H](NC(=O)[C@@H]1CCCN1C(=O)[C@H](CS)NC(=O)[C@H](C)N)C(=O)O (H-ACPI-OH)
inactive	–	–	–	CC[C@H](C)[C@H](NC(=O)[C@@H]1CCCN1C(=O)[C@@H](N)CS)C(=O)N[C@@H](C)C(=O)N[C@@H](CCC(N)=O)C(=O)N[C@@H](CCCCN)C(=O)NCCN(CC(=O)NCCN(CC(=O)NCCN(CC(=O)NCCN(CC(=O)NCCN(CC(=O)NCCN(CC(=O)NCCN(CC(=O)NCC(N)=O)C(=O)Cn1cnc2c(=O)[nH]c(N)nc21)C(=O)Cn1cnc2c(N)ncnc21)C(=O)Cn1ccc(N)nc1=O)C(=O)Cn1cnc2c(N)ncnc21)C(=O)Cn1cc(C)c(=O)[nH]c1=O)C(=O)Cn1ccc(N)nc1=O)C(=O)Cn1ccc(N)nc1=O
inactive	–	–	–	CC(=O)NCCN(CC(=O)NCCN(CC(=O)NCCN(CC(=O)NCCN(CC(=O)NCCN(CC(=O)NCCN(CC(=O)NCCN(CC(=O)NCCN(CC(=O)N[C@@H](CCCCNC(=O)CCSC(=O)[C@H](C)N)C(N)=O)C(=O)Cn1ccc(N)nc1=O)C(=O)Cn1cnc2c(N)ncnc21)C(=O)Cn1ccc(N)nc1=O)C(=O)Cn1ccc(N)nc1=O)C(=O)Cn1ccc(N)nc1=O)C(=O)Cn1ccc(N)nc1=O)C(=O)Cn1cc(C)c(=O)[nH]c1=O)C(=O)Cn1cc(C)c(=O)[nH]c1=O
–	Dose-dependent effect	5.82	Dose-dependent effect	CC[C@H](C)[C@H](NC(=O)[C@@H]1CCCN1C(=O)[C@H](CS)NC(=O)[C@H](C)N)C(=O)N[C@@H](C)C(=O)N[C@@H](CCC(N)=O)C(=O)N[C@@H](CCCCN)C(=O)NCCN(CC(=O)NCCN(CC(=O)NCCN(CC(=O)NCCN(CC(=O)NCCN(CC(=O)NCCN(CC(=O)NCCN(CC(=O)NCC(N)=O)C(=O)Cn1cnc2c(=O)[nH]c(N)nc21)C(=O)Cn1cnc2c(N)ncnc21)C(=O)Cn1ccc(N)nc1=O)C(=O)Cn1cnc2c(N)ncnc21)C(=O)Cn1cc(C)c(=O)[nH]c1=O)C(=O)Cn1ccc(N)nc1=O)C(=O)Cn1ccc(N)nc1=O
